# Results: PubChem BioAssay (NCI)
#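 96-well plates; 48 h exposure; 5 concentrations. Endpoints by linear interpolation between flanking doses. Not reached: highest tested concentration assigned. At the TGI there is no net growth.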
# Key:
# Assay in all cases: DTP human tumour cell line panel, 48 h
# A498 renal = test system: A498 renal
# SF-268 CNS = test system: SF-268 CNS
# U251 CNS = test system: U251 CNS
# HT29 colon = test system: HT29 colon
# NCI-H23 lung = test system: NCI-H23 lung
# COLO 205 colon = test system: COLO 205 colon
# MALME-3M melanoma = test system: MALME-3M melanoma
# RPMI-8226 leukemia = test system: RPMI-8226 leukemia
# ACHN renal = test system: ACHN renal
# UACC-62 melanoma = test system: UACC-62 melanoma
# NCI-H226 lung = test system: NCI-H226 lung
# LXFL 529 NSCLC = test system: LXFL 529 NSCLC
# A549 NSCLC = test system: A549 NSCLC
# SW-620 colon = test system: SW-620 colon
# SK-MEL-5 melanoma = test system: SK-MEL-5 melanoma
# SF-295 CNS = test system: SF-295 CNS
# DU-145 prostate = test system: DU-145 prostate
# MDA-MB-231 breast = test system: MDA-MB-231 breast
# MDA-MB-435 = test system: MDA-MB-435
# HS 578T breast = test system: HS 578T breast
SMILES,TGI (A498 renal) [µM],TGI (SF-268 CNS) [µM],TGI (U251 CNS) [µM],TGI (HT29 colon) [µM],TGI (NCI-H23 lung) [µM],TGI (COLO 205 colon) [µM],TGI (MALME-3M melanoma) [µM],TGI (RPMI-8226 leukemia) [µM],TGI (ACHN renal) [µM],TGI (UACC-62 melanoma) [µM],TGI (NCI-H226 lung) [µM],TGI (LXFL 529 NSCLC) [µM],TGI (A549 NSCLC) [µM],TGI (SW-620 colon) [µM],TGI (SK-MEL-5 melanoma) [µM],TGI (SF-295 CNS) [µM],TGI (DU-145 prostate) [µM],TGI (MDA-MB-231 breast) [µM],TGI (MDA-MB-435) [µM],TGI (HS 578T breast) [µM]
COc1cc2c(cc1O)[C@H](C)C(c1ccc(Cl)cc1)O2 (stereo not given in full),> 100,72.6,69,> 100,70.8,> 100,80.6,25.6,27.8,92.4,70,34.7,98.6,38,31.8,82.6,,,,
C=CCN1C(=O)CS/C1=N\NC(=O)c1c(C)nc2sccn12,,> 100,> 100,> 100,> 100,> 100,> 100,> 100,> 100,> 100,> 100,> 100,> 100,> 100,> 100,> 100,,,,
COC(=O)/C(=C/c1ccc(OC)cc1)C(C(=O)O)=C(C)C,> 100,> 100,> 100,> 100,> 100,> 100,> 100,> 100,,> 100,> 100,> 100,> 100,> 100,> 100,> 100,,,,
CN(C)[C@@H]1C(=O)C(C(N)=O)=C(O)[C@@]2(O)C(=O)C3=C(O)c4c(O)cccc4C[C@H]3C[C@@H]12,4.56,3.23,4.68,,4.27,3.25,2.92,,14.3,3.14,,3.88,5.52,9.84,3.63,3.22,,,,
CC(C)(C)C1CC[C@H]2c3c([nH]c4ccc(Br)cc34)[C@H]3C(=O)N(c4ccccc4)C(=O)[C@H]3[C@H]2C1 (stereo not given in full),,95.1,36.5,> 100,> 100,44.2,> 100,> 100,> 100,87.4,81.8,31.3,> 100,> 100,> 100,43.1,,,,
Cc1ccc(-c2cc(-c3ccco3)nc(N)n2)o1,,> 100,,> 100,> 100,> 100,> 100,> 100,> 100,> 100,> 100,> 100,> 100,> 100,> 100,> 100,,,,
On1c(-c2ccccc2)c(-c2c(-c3ccccc3)n(O)c3ccccc23)c2ccccc21,,> 100,> 100,> 100,90.1,,79.7,,87.5,> 100,64.7,20,> 100,,50,61.9,,,,
NC1=CN(CCCO)C2=N/C(=C\c3ccco3)C(=O)N12,> 100,> 100,> 100,> 100,> 100,> 100,> 100,> 100,> 100,> 100,> 100,,> 100,> 100,> 100,> 100,> 100,> 100,> 100,> 100
C=C(NC(=O)C(=C)NC(=O)c1csc(C2=NC3c4csc(n4)C4NC(=O)c5csc(n5)C(C(C)(O)C(C)O)NC(=O)C5CSC(=N5)/C(=C/C)NC(=O)C(C(C)O)NC(=O)c5csc(n5)C3(CC2)NC(=O)C(C)NC(=O)C(=C)NC(=O)C(=C)NC(=O)C(C(C)C)NC2C=Cc3c(C(C)O)cc(nc3C2O)C(=O)OC4C)n1)C(N)=O (stereo not given),16.5,> 100,> 40.2,16,> 62.6,> 100,0.786,13.6,> 61.2,4.15,7.24,,> 48.5,> 100,> 100,> 100,> 72.4,> 100,> 52.8,> 100
O=C(NCCNCCO)N/N=C/c1cccc([N+](=O)[O-])c1,> 100,> 100,> 100,> 100,> 100,> 100,> 100,> 100,> 100,> 100,> 100,> 100,> 100,> 100,> 100,> 100,,,,
N#Cc1[nH]c(=O)n(-c2ccc([N+](=O)[O-])cc2)c1N,> 10,> 10,> 10,> 10,> 10,> 10,> 10,> 10,> 10,> 10,> 10,,> 10,> 10,> 10,> 10,> 10,> 10,> 10,> 10
O=c1c2cc([N+](=O)[O-])ccc2n2n1Cc1ccccc1CC2,> 100,> 100,> 100,> 100,> 100,> 100,> 100,> 100,> 100,> 100,> 100,,> 100,> 100,> 100,> 100,> 100,> 100,> 100,> 100
N=C(N)/N=C(/C=C/c1ccccc1)CC1OC(=O)c2ccccc21 (stereo not given),> 100,> 100,> 100,> 100,,> 100,> 100,> 100,> 100,> 100,> 100,> 100,> 100,> 100,> 100,,,,,
Cc1ncc([N+](=O)[O-])n1CCN(C)CCCCn1ccnc1[N+](=O)[O-],> 100,> 100,> 100,> 100,> 100,> 100,> 100,> 100,> 100,> 100,> 100,,> 100,> 100,> 100,> 100,> 100,> 100,> 100,> 100
NCCC1(N)CCNCC1,> 100,> 100,> 100,> 100,> 100,> 100,> 100,> 100,> 100,> 100,> 100,,> 100,> 100,> 100,> 100,> 100,> 100,> 100,> 100
COC(=O)OC[C@H]1O[C@@H](n2cc(C)c(=O)[nH]c2=O)CC1OC(=O)OC (stereo not given in full),> 100,> 100,> 100,> 100,> 100,> 100,> 100,> 100,> 100,> 100,> 100,,> 100,> 100,> 100,> 100,> 100,> 100,> 100,> 100
CCOn1cc(C[C@@]2(O)C(=O)OC3[C@@H](O)CO[C@@]32O)c2ccccc21 (stereo not given in full),4.09,> 100,> 100,> 100,> 100,> 100,> 100,> 100,> 100,> 100,> 100,,> 100,> 100,> 100,> 100,> 100,> 100,> 100,> 100
Oc1c(OCc2nnc(CCCCCCCCc3nnc(COc4ccc5ccccc5c4O)n3Nc3ccccc3)n2Nc2ccccc2)ccc2ccccc12,34.3,27,25.5,26.2,35.2,1.32,28.8,26.7,68.7,16.5,24.1,,27.8,24.6,3.27,13.9,31.9,23.4,19.3,22.2
Oc1c(Cl)c2nccnc2c2ccccc12,> 100,> 100,> 100,> 100,> 100,> 100,> 100,> 100,> 100,> 100,> 100,> 100,> 100,> 100,> 100,> 100,,,,
O=C1N[C@H]2c3c(Cl)sc(Cl)c3C(=O)[C@H]2O1,43.2,37,15.7,13.8,29,> 51,24.1,> 80.8,35.6,36.4,42.3,,> 100,7.71,> 69,34.6,> 54.6,> 58.2,36,43.5
O=c1[nH]cnc2c1nnn2CCCn1nnc2c(=O)[nH]cnc21,> 100,> 100,> 100,> 100,> 100,> 100,,> 100,> 100,> 100,> 100,> 100,> 100,> 100,> 100,> 100,,,,
O=C(CCN1CCCCC1CCO)Nc1ccc2c(c1)C(=O)c1ccc(NC(=O)CCN3CCCCC3CCO)cc1C2=O (stereo not given),8.45,25.4,14.9,20.6,40.3,10.4,10.9,31.8,24.9,13.9,22.1,5.65,41.1,9.88,21.5,33.9,,,,
COC(=O)OCC1OC(N2C(=O)NC(=O)C(I)C2N=[N+]=[N-])CC1OC(=O)OC (stereo not given),,> 100,> 100,> 100,> 100,> 100,> 100,> 100,> 100,> 100,> 100,> 100,> 100,> 100,> 100,> 100,,,,
O=[N+]([O-])/C(C(Cl)=C(Cl)Cl)=C1\Nc2ccccc2O1,> 100,> 100,> 100,> 100,> 100,> 100,> 100,75.6,> 100,> 100,59.7,,> 100,> 100,> 100,> 100,> 100,> 100,> 100,> 100
c1ccc2[nH]c(-c3nc4ccccc4o3)nc2c1,> 100,> 100,> 100,> 100,> 100,> 100,> 100,> 100,> 100,,> 100,> 100,> 100,,> 100,> 100,,,,
CS(=O)(=O)NNS(=O)(=O)c1ccc(Br)cc1,> 100,> 100,> 100,> 100,> 100,> 100,> 100,> 100,> 100,> 100,> 100,> 100,> 100,> 100,> 100,,,,,
